Test results as given in patent publication US12053441B2, “Formulations for improving the delivery of hydrophobic agents” (THE ROYAL INSTITUTION FOR THE ADVANCEMENT OF LEARNING / …, priority 2018, dated 2024).

Assays:
[1] = Solubilization of paclitaxel (PTX) in water; conditions: FIG. 25
Experimental: (A) Bar graph showing a concentration of soluble PTX in 4 mM McC1 solution. After mixing PTX and McC1 solution, the undissolved residues were removed by filtration through a 0.22 μm pore-size membrane. For determination of the PTX concentration, absorbance at 230 nm was measured and compared to a standard curve generated for known concentrations of PTX in pure methanol.

[2] = Experimental: Solubilization studies. In order to link the surfactant properties of McC1 and its stimulating impact on UQ10 uptake, the solubilization characteristics of McC1 on UQ10 have been determined. First, solubilization test was performed by overnight shaking of a mixture of UQ10 and McC1 in water.
Additional solubilization tests were performed using sonication. Excess amount of UQ10 was mixed with McC1 by sonication for 2 min in water.
Like caspofungin/McC1, surfactin is a cyclic lipopeptide. It is produced from various strains of Bacillus subtilis. Structurally it consists of a peptide chain formed by seven amino acids linked to a β-hydroxyl fatty acid via a lactone bond. It is known for its exceptional surfactant power. […] Then, solubilization test was performed by overnight shaking of a mixture of UQ10 and surfactin in water. The mixture were subjected to brief centrifugation to separate undissolved UQ10 before absorbance of the resultant clear supernatant at 275 nm was measured spectrophotometrically.
Several other surfactants were tested for their ability to solubilize UQ. Briefly, excess amount of UQ10 was mixed with water solution of the tested surfactants using sonication. The resultant suspensions were then filtered through a 0.45 μm syringe filter to remove undissolved UQ10.

[3] = test system: Pdss2/Mclk1 DKO cells; assay: Viability in glucose-free galactose-containing medium (resazurin reduction assay); assay type: cell-based, mouse
Experimental: Tissue culture and viability assays. […] Cell viability was determined by resazurin (Sigma Cat No R7017) reduction assay or crystal violet staining following standard procedures.
The resazurin cell viability assay. Briefly, resazurin was added directly to plates at 1/10 the volume of glucose culture medium. Viable cells with active metabolism can reduce resazurin into resorufin which causes a colour change from blue to pink. After a 2 hr incubation, plates were read on a plate reader (Tecan) to record absorbance at 570 nm and 600 nm. The cell viability was scored as a percentage relative to the signal from untreated glucose-grown wells. Consequently, each screened compound may be described by its effect (no, partial or full rescue) on survival of the KO cells in galactose medium.
The screen also uses cells lacking UQ biosynthesis (e.g., DKO cells) and its protocol is essentially the same as the galactose-only screen except that in step 2, a minimal amount of UQ10 is added into the galactose screening media at a concentration at which the added UQ10 is insufficient by itself to support survival.

[4] = test system: Pdss2/Mclk1 DKO cells; assay: Oxygen consumption rate (OCR) by Seahorse XF analyzer; assay type: cell-based, mouse; conditions: co-treatment with UQ10
Experimental: Measurement of oxygen consumption by Seaborse XF analyzer. Cells were seeded in XF v7 24-well plates (Seahorse Bioscience) at ˜40,000 cells/well for 24 hr. Prior to the measurements, cell medium was replaced with Seahorse XF base medium supplemented with 5.5 mM glucose (Sigma Cat No G8769), 2 mM Glutamax (Thermo Fisher Cat No 35050061) and 1 mM sodium pyruvate and allowed to equilibrate for 1 hour at 37° C. Oxygen consumption was measured first under baseline condition, followed by subsequent addition of 1 μg/ml oligomycin (Sigma Cat No 04876), 0.8 μM FCCP (Sigma Cat No C2920) and a combination of 1 μM rotenone (Sigma Cat No R8875) and 5 μM antimycin A (Sigma Cat No A8674) to assess the basal and maximal mitochondrial respiration rates. Four baseline measurements were recorded before the consecutive addition of the above-mentioned compounds, and three response measurements were taken after the addition of each compound. Results were finally normalized to protein content determined using the Bradford reagent (Bio-Rad). For experiments that involved culturing cells in the presence of lipoprotein-deficient serum (LPDS), cells were grown in culture medium supplemented with LPDS (Sigma S5394) for 1 week before OCR was measured using a Seahorse XF-24 extracellular flux analyzer as described above.

[5] = test system: Pdss2/Mclk1 DKO MEFs; assay: Cellular UQ10 levels (quinone quantification by HPLC); assay type: cell-based, mouse
Experimental: (§1) Quantification of quinones. Quinone content was detected and quantified by HPLC as previously described. […] After centrifugation for 5 min at 8,000×g, the hexane layer was collected and evaporated in a vacuum centrifuge. The quinone residue was then dissolved in ethanol and stored at −20° C. until HPLC analysis. The HPLC analysis was performed on a reverse phase C18 column (25.0×0.46 cm, 5 μm, Highchrom) using UV detection at 275 nm (Beckman System Gold). The mobile phase was methanol/ethanol (70:30 v/v) and isocratic elution was used at a flow rate of 1.8 ml/min.

[6] = test system: wildtype MEFs; assay: as above; assay type: cell-based, mouse
Experimental: as §1

[7] = test system: mitochondria of Pdss2/Mclk1 DKO MEFs; assay: UQ levels in mitochondrial extracts; assay type: cell-based, mouse; conditions: in combination with UQ10, vs UQ10 alone
Excerpt: (§2) FIGS. 7A to 7D present exemplary data showing that McC1 is capable of increasing the uptake of exogenous UQ into cells and mitochondria. (A) Bar chart showing change of UQ10 levels (as measured in ng/μg of protein) in Pdss2/Mclk1 DKO MEFs after treatment with UQ10, McC1 alone, or UQ10 and McC1 in combination. **p<0.01, ***p<0.001 (one-way ANOVA). (B) Bar charts presenting exemplary data showing changes of UQ levels in wildtype MEFs after treatment with UQ10, McC1 alone, or both in combination. Results are shown as cellular UQ10 levels (as provided in ng/μg of protein, left panel) or UQ9 levels (as provided in ng/μg of protein, right panel) in untreated cells, after treatment with 12.5 μM of McC1, after treatment with 2.5 μM of UQ10, or after co-treatment UQ10 and McC1. Results are mean±SEM (n=3). ****p<0.0001 (one-way ANOVA). (C) Bar chart presenting exemplary data showing changes of UQ10 and UQ9 levels in mitochondrial extracts from wildtype MEFs after treatment with UQ10 alone, or in combination with McC1. Results are shown as UQ9 and UQ10 levels in ng/μg of protein. Results are mean±SEM (n=3). ****p<0.0001 (student's t-test). (D) Bar chart presenting exemplary data showing changes of UQ10 level in mitochondrial extracts from Pdss2/Mclk1 DKO MEFs after treatment with UQ10 alone, or in combination with McC1. Results are shown as UQ10 levels (as provided in ng/μg of protein) in untreated DKO cells, after treatment with 2.5 μM of UQ10, or after co-treatment 2.5 μM of UQ10 and 12.5 μM of McC1. ND: Not Detectable. Results are mean±SEM (n=3). ****p<0.0001 (one-way ANOVA).
as §1

[8] = test system: mitochondria of wild-type MEFs; assay: UQ levels in mitochondrial extracts; assay type: cell-based, mouse; conditions: in combination with UQ10, vs UQ10 alone
Excerpt: as §2, §1

[9] = Drop collapse assay (surfactant activity); assay type: physicochemical
Experimental: Drop collapse assay is a simple detection method of surface active agents. It relies on the capacity of surfactants to destabilize the liquid droplets on an oily surface. The drop-collapsing ability of McC1 along with other known potent surfactants was characterized. For each, 40 ul of compound solution in water was pipetted onto a hydrophobic Parafilm surface and the diameter of the drops was measured 1 min later using a ruler.

[10] = test system: mouse embryonic fibroblasts (MEFs); assay: Effect of PTX/McC1 micelles on cell growth and survival (resazurin reduction assay); assay type: cell-based; conditions: 2 to 6 days exposure (FIG. 26B)
Experimental: To evaluate the antiproliferative activity of PTX/McC1 micelles, we seeded exponentially growing mouse embryonic fibroblasts (MEFs) into 48-well plates, exposed them to PTX/McC1 micelles for 2 to 6 days, and determined the treatment effect on cell growth and survival by comparing the numbers of variable cells before and after the treatment.
Cells were allowed to attach overnight and then the PTX/McC1 solution was added into the culture media to obtain the desired concentrations. After 2 days' treatment, the standard resazurin reduction assay was used to evaluate cell growth and survival.

[11] = in combination with UQ10, vs UQ10 alone

Row | SMILES | solubility of PTX in water-only control [1] | increase in aqueous solubility of UQ10 [2] | water solubility of UQ10 in the presence of the compound [2] | survival of DKO cells in galactose medium ([3]; compound by itself, no UQ10 added) | survival of DKO cells in galactose medium ([3]; in the presence of a minimal amount of UQ10) | mitochondrial respiration (OCR) compared with UQ10 treatment alone [4] | intracellular concentration of UQ ([5]; compound used alone) | cellular uptake of exogenous UQ10 [5, 11] | intracellular concentration of UQ ([6]; compound used alone) | cellular uptake of exogenous UQ10 [6, 11] | uptake of exogenous UQ10 into mitochondria [7] | uptake of exogenous UQ10 into mitochondria [8] | surfactant (drop collapse) activity [9] | effect on cell growth and survival [10]
1 | CC(=O)O[C@H]1C(=O)[C@@]2(C)[C@H]([C@H](OC(=O)c3ccccc3)[C@]3(O)C[C@H](OC(=O)[C@H](O)[C@@H](NC(=O)c4ccccc4)c4ccccc4)C(C)=C1C3(C)C)[C@]1(OC(C)=O)CO[C@@H]1C[C@@H]2O [PTX, Paclitaxel] | not soluble in water |  |  |  |  |  |  |  |  |  |  |  |  | 
2 | CC[C@H](C)C[C@H](C)CCCCCCCCC(=O)N[C@H]1C[C@@H](O)[C@@H](NCCN)NC(=O)[C@@H]2[C@@H](O)CCN2C(=O)[C@H]([C@H](O)CCN)NC(=O)[C@H]([C@H](O)[C@@H](O)c2ccc(O)cc2)NC(=O)[C@@H]2C[C@@H](O)CN2C(=O)[C@H]([C@@H](C)O)NC1=O [McC1, Caspofungin] |  | more than 1,200,000 fold | greatly increased | no effect | able to rescue the mutant cells from death | greater increase of mitochondrial respiration | no effect | increased uptake of exogenous UQ10 into cells | no effect | increased uptake of exogenous UQ10 into cells | significantly increased uptake of exogenous UQ10 into mitochondria | significantly increased uptake of exogenous UQ10 into mitochondria | moderate surfactant activity | no observable toxicity
